One data set has as its target T1, M2 muscarinic receptor (Rattus norvegicus, UniProt P10980).
T1 construct: Submandibular glands and heart were isolated and placed in ice cold homogenising buffer; from tissue; host or cells: rat heart membrane homogenate
T1 sequence (P10980 1-466): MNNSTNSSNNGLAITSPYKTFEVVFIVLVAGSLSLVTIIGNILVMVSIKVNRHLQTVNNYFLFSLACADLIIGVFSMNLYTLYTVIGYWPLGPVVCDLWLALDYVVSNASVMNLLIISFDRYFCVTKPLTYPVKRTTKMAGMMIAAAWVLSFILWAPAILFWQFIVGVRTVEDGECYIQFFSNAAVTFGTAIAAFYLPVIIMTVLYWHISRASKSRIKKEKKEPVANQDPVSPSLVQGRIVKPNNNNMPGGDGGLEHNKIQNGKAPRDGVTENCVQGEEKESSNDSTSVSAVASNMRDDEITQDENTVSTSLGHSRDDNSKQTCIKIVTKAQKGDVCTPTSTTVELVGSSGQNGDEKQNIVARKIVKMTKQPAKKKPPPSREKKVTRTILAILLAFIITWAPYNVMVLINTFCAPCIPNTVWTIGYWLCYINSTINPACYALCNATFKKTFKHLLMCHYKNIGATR
The data set can be described thus: biochemical. Type of data set: binding. The note with it: Receptor Binding Assay M2 pKi.

Data set [1] deals with T2, M3 muscarinic receptor (Rattus norvegicus, UniProt P08483). The data set can be described thus: biochemical. The note with it: Receptor Binding Assay M3 pKi.
T2 sequence (P08483 whole entry): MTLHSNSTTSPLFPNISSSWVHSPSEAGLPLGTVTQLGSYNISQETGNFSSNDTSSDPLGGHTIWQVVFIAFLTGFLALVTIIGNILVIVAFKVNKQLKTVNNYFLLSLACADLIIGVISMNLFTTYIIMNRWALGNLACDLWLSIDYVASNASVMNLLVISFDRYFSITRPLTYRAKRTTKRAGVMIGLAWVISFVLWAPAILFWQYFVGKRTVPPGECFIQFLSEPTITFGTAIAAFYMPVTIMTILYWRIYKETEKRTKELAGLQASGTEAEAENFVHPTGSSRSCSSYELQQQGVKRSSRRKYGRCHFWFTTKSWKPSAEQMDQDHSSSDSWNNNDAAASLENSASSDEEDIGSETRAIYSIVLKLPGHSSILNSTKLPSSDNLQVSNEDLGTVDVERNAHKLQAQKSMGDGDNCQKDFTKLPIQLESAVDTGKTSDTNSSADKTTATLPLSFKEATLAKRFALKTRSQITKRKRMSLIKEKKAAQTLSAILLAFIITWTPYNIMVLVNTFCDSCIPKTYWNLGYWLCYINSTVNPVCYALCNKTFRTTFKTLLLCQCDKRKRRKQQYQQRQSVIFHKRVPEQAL
For data set [2], the target named is T2, M3 muscarinic receptor.
Another data set concerns bladder pressure. Put plainly: In vivo anaesthetized rabbit, carbachol-induced bladder pressure. To be noted: bladder selectivity expressed as fold of selectivity of oxybutynin in the same model.

pKi: −log10 of the molar value. Counter-ions that a name gives are not always drawn.

Compound `O=C(NC[C@@H]1[C@H]2CN(Cc3ccccc3)C[C@@H]12)C(O)(c1ccccc1)C1CCCC1` (stereo partly drawn) [Compound No. 3, (1α,5α,6α)-N-[3-benzyl-3-azabicyclo[3.1.0]hexyl-6(aminomethyl)-yl]-2-hydroxy-2-cyclopentyl-2-phenyl acetamide] displayed a melting point of 131 to 134 °C. The pKi on M2 muscarinic receptor was 7.02. The compound also showed a pKi on M3 muscarinic receptor [1] of 8.23. At M3 muscarinic receptor [2], the “Receptor Binding Assay Selectivity M2/M3” value stood at 16.

Consider `O=C(NCC1C2CN(Cc3ccccc3)CC12)[C@](O)(c1ccccc1)C1CCCC1.O=C(O)C(O)C(O)C(=O)O` (stereo partly drawn) [Compound No. 35, (2R)-(+)-(1α,5α,6α)-N-[3-benzyl-3-azabicyclo[3.1.0]hexyl-6-(aminomethyl)-yl]-2-hydroxy-2-cyclopentyl-2-phenylacetamide. L(+)-tartrate salt], for which the “Fold of Oxybutynin” value in the data set with bladder pressure turned out to be 3.45.

As for `O=C(NC[C@@H]1[C@H]2CN(Cc3ccccc3)C[C@@H]12)[C@](O)(c1ccccc1)C1CCCC1` [Compound No. 29, (2R)-(+)-(1α,5α,6α)-N-[3-benzyl-3-azabicyclo[3.1.0]hexyl-6-(aminomethyl)-yl]-2-hydroxy-2-cyclopentyl-2-phenyl acetamide], the pKi at M2 muscarinic receptor was 7.91; on M3 muscarinic receptor [1], 8.96. In addition, the “Receptor Binding Assay Selectivity M2/M3” value at M3 muscarinic receptor [2] amounted to 11.2.

In the case of `CC(C)=CCCN1CC2C(CNC(=O)C(O)(c3ccccc3)C3CCCC3)C2C1` (stereo not drawn) [Compound No. 16, (1α,5α,6α)-N-[3-(4-methyl-3-pentenyl)-3-azabicyclo[3.1.0]hexyl-6-(aminomethyl)-yl]-2-hydroxy-2-cyclopentyl-2-phenyl acetamide], the pKi at M2 muscarinic receptor is 6.75; at M3 muscarinic receptor [1] it was 7.63. In addition, the “Receptor Binding Assay Selectivity M2/M3” value on M3 muscarinic receptor [2] was 7.6.

For the compound `O=C(NCC1C2CN(Cc3ccccc3)CC12)C(O)(c1ccccc1)C1CCCCC1` (stereo not drawn) [Compound No. 2, (1α,5α,6α)-N-[3-benzyl-3-azabicyclo[3.1.0]hexyl-6-(aminomethyl)-yl]-2-hydroxy-2-cyclohexyl-2-phenyl acetamide], the pKi at M2 muscarinic receptor was 6.85; on M3 muscarinic receptor [1] it was 8.25. Further, the “Receptor Binding Assay Selectivity M2/M3” value on M3 muscarinic receptor [2] is on record as 25.

With `CC(NC(=O)C(O)(c1ccccc1)c1ccccc1)[C@H]1[C@@H]2CN(Cc3ccccc3)C[C@@H]21` (stereo partly drawn) [Compound No. 23, (1α,5α,6α)-N-[3-benzyl-3-azabicyclo[3.1.0]hexyl-6-(1-aminoethyl)-yl]-2-hydroxy-2,2-diphenyl acetamide], the values for the pKi at M2 muscarinic receptor and on M3 muscarinic receptor [1] were 6.23 and 6.80, respectively. On M3 muscarinic receptor [2], the “Receptor Binding Assay Selectivity M2/M3” value is 3.7.

Turning to `O=C(NCC1C2CN(Cc3ccccc3)CC12)[C@@](O)(c1ccccc1)C1CCCC1.O=C(O)C(O)C(O)C(=O)O` (stereo partly drawn) [Compound No. 36, (2S)-(−)-(1α,5α,6α)-N-[3-benzyl-3-azabicyclo[3.1.0]hexyl-6(aminomethyl)-yl]-2-hydroxy-2-cyclopentyl-2-phenylacetamide. L(+)-tartrate salt], the “Fold of Oxybutynin” value in the data set with bladder pressure is on record as 2.17.

As for `O=C(NC[C@@H]1[C@H]2CN(Cc3ccccc3)C[C@@H]12)C(O)(c1ccccc1)c1ccccc1` [Compound No. 1, (1α,5α,6α)-N-[3-benzyl-3-azabicyclo[3.1.0]hexyl-6-(aminomethyl)-yl]-2-hydroxy-2,2-diphenyl acetamide], the pKi on M2 muscarinic receptor is 6.59; at M3 muscarinic receptor [1] it was 7.60. Further, at M3 muscarinic receptor [2], the “Receptor Binding Assay Selectivity M2/M3” value worked out at 10.

`CC(NC(=O)C(O)(c1ccccc1)C1CCCCC1)[C@H]1[C@@H]2CN(Cc3ccccc3)C[C@@H]21` (stereo partly drawn) [Compound No. 24, (1α,5α,6α)-N-[3-benzyl-3-azabicyclo[3.1.0]hexyl-6-(1-aminoethyl)-yl]-2-hydroxy-2-cyclohexyl-2-phenyl acetamide]: the negative logarithm of the Ki (pKi) on M2 muscarinic receptor is 6.56; on M3 muscarinic receptor [1], 7.51. In addition, the “Receptor Binding Assay Selectivity M2/M3” value on M3 muscarinic receptor [2] is on record as 8.9.

Consider `O=C(NCC1C2CN(CCc3ccc4c(c3)CCO4)CC12)C(O)(c1ccccc1)C1CCCC1` (stereo not drawn) [Compound No. 10, (1α,5α,6α)-N-[3-(2-(2,3-dihydrobenzofuran-5-yl)ethyl)-3-azabicyclo[3.1.0]hexyl-6-(aminomethyl)-yl]-2-hydroxy-2-cyclopentyl-2-phenyl acetamide], for which the negative-log Ki (pKi) at M2 muscarinic receptor is 6.47; at M3 muscarinic receptor [1], 7.49. On M3 muscarinic receptor [2], the “Receptor Binding Assay Selectivity M2/M3” value stood at 10.47.

For the compound `O=C(NC[C@@H]1[C@H]2CN(CCc3ccc4c(c3)CCO4)C[C@@H]12)C(O)(c1ccccc1)C1CCCCC1` (stereo partly drawn) [Compound No. 9, (1α,5α,6α)-N-[3-(2-(2,3-dihydrobenzofuran-5-yl)ethyl)-3-azabicyclo[3.1.0]hexyl-6-(aminomethyl)-yl]-2-hydroxy-2-cyclohexyl-2-phenyl acetamide], the pKi is 6.59 at M2 muscarinic receptor and 7.41 on M3 muscarinic receptor [1]. Further, the “Receptor Binding Assay Selectivity M2/M3” value at M3 muscarinic receptor [2] was 6.6.

For the compound `CC(C)=CCCN1C[C@@H]2[C@@H](CNC(=O)C(O)(c3ccccc3)C3CCCCC3)[C@@H]2C1` (stereo partly drawn) [Compound No. 15, (1α,5α,6α)-N-[3-(4-methyl-3-pentenyl)-3-azabicyclo[3.1.0]hexyl-6-(aminomethyl)-yl]-2-hydroxy-2-cyclohexyl-2-phenyl acetamide], the pKi was 6.59 at M2 muscarinic receptor and 7.87 at M3 muscarinic receptor [1]. Also, at M3 muscarinic receptor [2], the “Receptor Binding Assay Selectivity M2/M3” value turned out to be 19.

Consider `O=C(NCC1C2CN(Cc3ccccc3)CC12)C(O)(c1ccccc1)C1CCCCC1` (single isomer, unassigned) [Compound No. 28], for which the pKi on M2 muscarinic receptor was 7.85; at M3 muscarinic receptor [1], 8.40. For the same compound, on M3 muscarinic receptor [2], the “Receptor Binding Assay Selectivity M2/M3” value amounted to 3.5.

With `O=C(NCC1C2CN(Cc3ccccc3)CC12)C(O)(c1ccccc1)C1CCCC1` [Compound No. 34, (1α,5α,6α)-N-[3-benzyl-3-azabicyclo[3.1.0]hexyl-6-(aminomethyl)-yl]-2-hydroxy-2-cyclopentyl-2-phenyl acetamide L-(+)-tartrate salt], the pKi on M2 muscarinic receptor was 7.22; on M3 muscarinic receptor [1], 8.23. In addition, the “Receptor Binding Assay Selectivity M2/M3” value on M3 muscarinic receptor [2] came out at 8.

Broadly, the pKi is the Ki on a negative log10 scale, so that one unit is a factor of ten. The low end stands for a large Ki, the high end for a small Ki. What is called melting point is the temperature, or range, at which the solid turns liquid.

These data come from patent US20070004791A1, “3,6-disubstituted azabicyclo {3.1.0} hexane derivatives useful as muscarnic receptor antagonists” (priority 2002, published 2007).
